System: 885724-159-R-J1-PDC complex spheroid viability
Assay: Anticancer human tumor 885724-159-R-J1-PDC patient-derived pancreatic adenocarcinoma cell line growth inhibition [GQUAD]
Conditions: for IC50: curve of first compound; for viability, T/C: stronger effect = lower value
In short: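 Multi-cell-type spheroids of tumor cells with HUVEC and mesenchymal stem cells, treated with drug combinations. Concentrations descend in half-log steps from near clinical Cmax, or from 10 microM where Cmax is unknown; viability read-out.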

[1] = second compound 0.0316 µM, first compound 0.0316 µM
[2] = second compound 0.0316 µM, first compound 0.1 µM
[3] = second compound 0.0316 µM, first compound 0.316 µM
[4] = second compound 0.0316 µM, first compound 1 µM
[5] = second compound 0.0316 µM, first compound 3.16 µM
[6] = second compound 0.0316 µM, first compound 10 µM
[7] = second compound 0.1 µM, first compound 0.0316 µM
[8] = second compound 0.1 µM, first compound 0.1 µM
[9] = second compound 0.1 µM, first compound 0.316 µM
[10] = second compound 0.1 µM, first compound 1 µM
[11] = second compound 0.1 µM, first compound 3.16 µM
[12] = second compound 0.1 µM, first compound 10 µM
[13] = second compound 0.316 µM, first compound 0.0316 µM
[14] = second compound 0.316 µM, first compound 0.1 µM
[15] = second compound 0.316 µM, first compound 0.316 µM
[16] = second compound 0.316 µM, first compound 1 µM
[17] = second compound 0.316 µM, first compound 3.16 µM
[18] = second compound 0.316 µM, first compound 10 µM
[19] = second compound 1 µM, first compound 0.0316 µM
[20] = second compound 1 µM, first compound 0.1 µM
[21] = second compound 1 µM, first compound 0.316 µM
[22] = second compound 1 µM, first compound 1 µM
[23] = second compound 1 µM, first compound 3.16 µM
[24] = second compound 1 µM, first compound 10 µM
[25] = second compound 3.16 µM, first compound 0.0316 µM
[26] = second compound 3.16 µM, first compound 0.1 µM
[27] = second compound 3.16 µM, first compound 0.316 µM
[28] = second compound 3.16 µM, first compound 1 µM
[29] = second compound 3.16 µM, first compound 3.16 µM
[30] = second compound 3.16 µM, first compound 10 µM
[31] = second compound 10 µM, first compound 0.0316 µM
[32] = second compound 10 µM, first compound 0.1 µM
[33] = second compound 10 µM, first compound 0.316 µM
[34] = second compound 10 µM, first compound 1 µM
[35] = second compound 10 µM, first compound 3.16 µM
[36] = second compound 10 µM, first compound 10 µM
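Further: spheroids exposed to agents for seven days before readout.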
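Wherever viability, T/C is given: percent of vehicle control viability where 100% = DMSO wells.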

SMILES: COc1cccc2c1C(=O)c1c(O)c3c(c(O)c1C2=O)CC(O)(C(=O)CO)CC3OC1CC(N)C(O)C(C)O1 (stereo not drawn) + Cc1[nH]c2ccc(F)cc2c1-c1nc2c3cccnc3c3ncccc3c2[nH]1
- IC50 (second compound 0.0316 µM): 1.97 µM
- IC50 (second compound 0.1 µM): 2.29 µM
- IC50 (second compound 0.316 µM): 2.49 µM
- IC50 (second compound 1 µM): 2.53 µM
- IC50 (second compound 3.16 µM): 0.0374 µM
- IC50 (second compound 10 µM): 2 µM
- viability, T/C [1]: 104%
- viability, T/C [2]: 98.8%
- viability, T/C [3]: 92%
- viability, T/C [4]: 71.8%
- viability, T/C [5]: 34.8%
- viability, T/C [6]: 5.27%
- viability, T/C [7]: 119%
- viability, T/C [8]: 99.5%
- viability, T/C [9]: 89.2%
- viability, T/C [10]: 74.7%
- viability, T/C [11]: 41%
- viability, T/C [12]: 2.4%
- viability, T/C [13]: 91%
- viability, T/C [14]: 96.2%
- viability, T/C [15]: 86.6%
- viability, T/C [16]: 64%
- viability, T/C [17]: 47.8%
- viability, T/C [18]: 2.12%
- viability, T/C [19]: 78.2%
- viability, T/C [20]: 69.3%
- viability, T/C [21]: 71.5%
- viability, T/C [22]: 61.2%
- viability, T/C [23]: 49%
- viability, T/C [24]: 1.09%
- viability, T/C [25]: 52.8%
- viability, T/C [26]: 43.5%
- viability, T/C [27]: 29.2%
- viability, T/C [28]: 26.4%
- viability, T/C [29]: 22.5%
- viability, T/C [30]: 0.94%
- viability, T/C [31]: 73.3%
- viability, T/C [32]: 64.9%
- viability, T/C [33]: 58.6%
- viability, T/C [34]: 69.5%
- viability, T/C [35]: 39%
- viability, T/C [36]: 1.06%

SMILES: Cc1cccc(N(C)C(=O)C2C(O)CCN2c2nc(C)cc(C(F)(F)F)c2C#N)c1 (stereo not drawn) + Cc1[nH]c2ccc(F)cc2c1-c1nc2c3cccnc3c3ncccc3c2[nH]1
- IC50 (second compound 0.0316 µM): > 10 µM
- IC50 (second compound 0.1 µM): > 10 µM
- IC50 (second compound 0.316 µM): > 10 µM
- IC50 (second compound 1 µM): > 10 µM
- IC50 (second compound 3.16 µM): < 0.0316 µM
- IC50 (second compound 10 µM): > 10 µM
- viability, T/C [1]: 105%
- viability, T/C [2]: 93.1%
- viability, T/C [3]: 82.5%
- viability, T/C [4]: 100%
- viability, T/C [5]: 94.2%
- viability, T/C [6]: 93.1%
- viability, T/C [7]: 91.3%
- viability, T/C [8]: 95.3%
- viability, T/C [9]: 104%
- viability, T/C [10]: 98.6%
- viability, T/C [11]: 81.8%
- viability, T/C [12]: 87.8%
- viability, T/C [13]: 101%
- viability, T/C [14]: 101%
- viability, T/C [15]: 97.4%
- viability, T/C [16]: 79.9%
- viability, T/C [17]: 83.4%
- viability, T/C [18]: 86.7%
- viability, T/C [19]: 71.9%
- viability, T/C [20]: 70.6%
- viability, T/C [21]: 77.1%
- viability, T/C [22]: 66.2%
- viability, T/C [23]: 81%
- viability, T/C [24]: 70.8%
- viability, T/C [25]: 46.6%
- viability, T/C [26]: 41.4%
- viability, T/C [27]: 50.8%
- viability, T/C [28]: 42.6%
- viability, T/C [29]: 42.1%
- viability, T/C [30]: 43%
- viability, T/C [31]: 66.2%
- viability, T/C [32]: 68.3%
- viability, T/C [33]: 64.8%
- viability, T/C [34]: 69.1%
- viability, T/C [35]: 80.9%
- viability, T/C [36]: 82.7%

SMILES: Nc1ccn(C2OC(CO)C(O)C2(F)F)c(=O)n1 (stereo not drawn) + Cc1[nH]c2ccc(F)cc2c1-c1nc2c3cccnc3c3ncccc3c2[nH]1
- IC50 (second compound 0.0316 µM): > 10 µM
- IC50 (second compound 0.1 µM): > 10 µM
- IC50 (second compound 0.316 µM): > 10 µM
- IC50 (second compound 1 µM): > 10 µM
- IC50 (second compound 3.16 µM): < 0.0316 µM
- IC50 (second compound 10 µM): > 10 µM
- viability, T/C [1]: 92.8%
- viability, T/C [2]: 100%
- viability, T/C [3]: 75.2%
- viability, T/C [4]: 75.6%
- viability, T/C [5]: 75.3%
- viability, T/C [6]: 80.8%
- viability, T/C [7]: 94.3%
- viability, T/C [8]: 82.2%
- viability, T/C [9]: 71.4%
- viability, T/C [10]: 79.5%
- viability, T/C [11]: 73.8%
- viability, T/C [12]: 86.6%
- viability, T/C [13]: 93.6%
- viability, T/C [14]: 89.3%
- viability, T/C [15]: 77.3%
- viability, T/C [16]: 72.2%
- viability, T/C [17]: 79.3%
- viability, T/C [18]: 69.3%
- viability, T/C [19]: 83.3%
- viability, T/C [20]: 67.6%
- viability, T/C [21]: 65.8%
- viability, T/C [22]: 56.6%
- viability, T/C [23]: 70.7%
- viability, T/C [24]: 55%
- viability, T/C [25]: 43.3%
- viability, T/C [26]: 26.1%
- viability, T/C [27]: 28.3%
- viability, T/C [28]: 22.6%
- viability, T/C [29]: 26.1%
- viability, T/C [30]: 20.3%
- viability, T/C [31]: 67.7%
- viability, T/C [32]: 72.9%
- viability, T/C [33]: 59%
- viability, T/C [34]: 58.4%
- viability, T/C [35]: 61.2%
- viability, T/C [36]: 62%

SMILES: O=C(c1cc(Cc2n[nH]c(=O)c3ccccc23)ccc1F)N1CCN(C(=O)C2CC2)CC1 + Cc1[nH]c2ccc(F)cc2c1-c1nc2c3cccnc3c3ncccc3c2[nH]1
- IC50 (second compound 0.0316 µM): > 10 µM
- IC50 (second compound 0.1 µM): > 10 µM
- IC50 (second compound 0.316 µM): > 10 µM
- IC50 (second compound 1 µM): > 10 µM
- IC50 (second compound 3.16 µM): < 0.0316 µM
- IC50 (second compound 10 µM): > 10 µM
- viability, T/C [1]: 99.1%
- viability, T/C [2]: 94.3%
- viability, T/C [3]: 103%
- viability, T/C [4]: 84.5%
- viability, T/C [5]: 89.2%
- viability, T/C [6]: 87.9%
- viability, T/C [7]: 102%
- viability, T/C [8]: 111%
- viability, T/C [9]: 92.2%
- viability, T/C [10]: 92.6%
- viability, T/C [11]: 103%
- viability, T/C [12]: 78.1%
- viability, T/C [13]: 85.5%
- viability, T/C [14]: 88.7%
- viability, T/C [15]: 90.3%
- viability, T/C [16]: 79.1%
- viability, T/C [17]: 96.2%
- viability, T/C [18]: 72.9%
- viability, T/C [19]: 71.1%
- viability, T/C [20]: 71.1%
- viability, T/C [21]: 77.2%
- viability, T/C [22]: 65.3%
- viability, T/C [23]: 76.8%
- viability, T/C [24]: 65.6%
- viability, T/C [25]: 41.3%
- viability, T/C [26]: 39.9%
- viability, T/C [27]: 56.6%
- viability, T/C [28]: 34.7%
- viability, T/C [29]: 49.8%
- viability, T/C [30]: 45.5%
- viability, T/C [31]: 64.7%
- viability, T/C [32]: 70.5%
- viability, T/C [33]: 76.8%
- viability, T/C [34]: 72.3%
- viability, T/C [35]: 70.6%
- viability, T/C [36]: 63.3%

Source: PubChem BioAssay AID2060502 (Molecular Pharmacology Branch, DTP, NCI, 2025)
